Measured values from patent US20240254077A1, “METHODS OF TREATING CHRONIC OBSTRUCTIVE PULMONARY DISEASE INCLUDING COMPOUNDS USEFUL THEREIN” (The Trustees of Columbia University in the City of New York, priority 2021, published 2024).
Entries after “also recorded” stand apart in the source; their conditions may differ. Read-outs that look alike come from different tables or passages of the source.

Experiments:
MMP1 = MMP1 concentration, fluoxetine derivatives on SAEC (FIG. 6); format: cell-based, human
Text: FIG. 6: MMP1 activity—fluoexetine derivatives on SAEC. Comparison of Derivatives 1-6 on MMP1 concentration.

MMP-1 = MMP-1 expression and secretion in CSE exposed small airway epithelial cell (SAEC) cultures; format: cell-based, human; conditions: for MMP1 expression / MMP1 induction: SAEC, 5% CSE, varying doses (dose response)
Method: FIG. 2: Fluoxetine inhibits MMP-1 production and TLR-4 signaling in CSE exposed SAEC cultures.
(A) Fluoxetine. (B) Derivative 2. (C) Derviative 5. SAEC cultures were treated with 5% CSE and varying doses of Fluoxetine, Derivative 2 and Derivative 5, respectively. Treatment with the derivatives decreased MMP1 induction after cigarette smoke treatment.
The compounds in this clinical set have all been tested and utilized in humans for various indications. These molecules were tested for their capacity to modulate MMP-1 smoke induced transcriptional activation. […] Prior work in our lab was critical in establishing MMP-1 as a destructive agent in the progression of COPD in humans. As such, we next exposed human small airway epithelial cells to cigarette smoke extract followed by treatment with fluoxetine.
Aim 1b: Determining if potential CL(s) maintain their ability to inactivate MMP1 transcription and inflammatory pathways via inhibition of TLR4 signaling in human small airway epithelial cells. For each positive hit and fluoxetine, the DRC is used to derive their respective IC50's and Hill slopes. The concentration required to achieve a 50%, 75% and 99.9% fractional effect is calculated using the formula: [Cf]=[(fraction/100-fraction) ^(1/Hill slope)]IC50. The effect of each calculated concentration on cell viability is tested in triplicate on primary human small airway epithelial cell (hSAEC) culture via MTT assay. […] The chosen concentrations are tested on SAEC cultures exposed to 5% cigarette smoke extract for 24 h to assess their effects on MMP1 and TLR4 expression via mRNA extraction to analyze transcript levels by real-time RT-PCR. Culture media is collected and MMP1 secretion assessed by ELISA (R&D Systems, MN). Protein collected for western blot is used to assess IRAK phosphorylation, a known downstream effector of TLR4 activity. In addition, PCR arrays (ThermoFisher, MA) that measure the expression of cytokines that have been implicated in the pathogenesis of COPD, their receptors and the expression of transcription factors that regulate the cellular response to oxidants and CSE exposure are used to determine the ability of each derivative to suppress inflammatory signaling in smoke exposed cells.
SAEC cultures were treated with 5% CSE and varying doses of Fluoxetine, Derivative 2 and Derivative 5, respectively. Treatment with the derivatives decreased MMP1 induction after cigarette smoke treatment.

IL-8 = IL-8 expression in CSE treated SAEC, dose response; format: cell-based, human; conditions: 5% CSE, varying doses
smoke exposed rabbits = conditions: cigarette smoke 16 weeks, oral; for mean linear intercept (morphometric analysis): versus smoke alone
Text: (C) Representative H&E stains for each treatment group.
As the next step, we observed the ability of oral duloxetine to inhibit cigarette smoke induced up-regulation of MMP1 and lung destruction in a rabbit model. Rabbits were utilized for these experiments since unlike mice they produce MMP-1. Rabbits were exposed to cigarette smoke for 16 weeks while receiving placebo or orally administered duloxetine.
To assess the effects of SSRIs on the cigarette smoke induced inflammatory response, we utilized smoke-exposed mice.

MMP1 promoter = MMP1 promoter luciferase reporter screen in CSE-treated transfected HEK 293T cells; format: cell-based, human; conditions: NIH clinical collection screen
Method: (§1) These molecules were tested for their capacity to modulate MMP-1 smoke induced transcriptional activation. […] As such, we next exposed human small airway epithelial cells to cigarette smoke extract followed by treatment with fluoxetine.

smoke exposed mice = assay: Cigarette smoke exposed mice, inflammatory BALF cell counts; format: in vivo, mouse; conditions: cigarette smoke 10 days, oral
Text: FIG. 4: Oral fluoxetine treatment in smoke exposed mice reduces inflammatory BALF cell counts. […] (B) Representative cytospin DifQuik stains for each experimental group.

TLR-4 = TLR-4 signaling (TLR-4 expression, phospho-IRAK) in CSE exposed SAEC cultures; format: cell-based, human
Method: as §1
For each positive hit and fluoxetine, the DRC is used to derive their respective IC50's and Hill slopes. The concentration required to achieve a 50%, 75% and 99.9% fractional effect is calculated using the formula: [Cf]=[(fraction/100-fraction) ^(1/Hill slope)]IC50. The effect of each calculated concentration on cell viability is tested in triplicate on primary human small airway epithelial cell (hSAEC) culture via MTT assay. […] The chosen concentrations are tested on SAEC cultures exposed to 5% cigarette smoke extract for 24 h to assess their effects on MMP1 and TLR4 expression via mRNA extraction to analyze transcript levels by real-time RT-PCR. Culture media is collected and MMP1 secretion assessed by ELISA (R&D Systems, MN). Protein collected for western blot is used to assess IRAK phosphorylation, a known downstream effector of TLR4 activity.

## CCCCN(C)CCC(Oc1ccc(C(F)(F)F)cc1)c1ccccc1 (stereo not shown) [Derivative 1, N-methyl-N-(3-phenyl-3-(4-(trifluoromethyl)phenoxy)propyl)butan-1-amine]
MMP1; 5 μM
  MMP1 concentration: significantly decreasd MMP1 concentrations
MMP1; 10 μM
  MMP1 concentration: significantly decreasd MMP1 concentrations

## CCNC(=O)N(C)CCC(Oc1ccc(C(F)(F)F)cc1)c1ccccc1 (stereo not shown) [Derivative 2, 3-ethyl-1-methyl-1-(3-phenyl-3-(4-(trifluoromethyl)phenoxy)propyl)urea]
MMP1; 5 μM
  MMP1 concentration: significantly decreasd MMP1 concentrations
MMP1; 10 μM
  MMP1 concentration: significantly decreasd MMP1 concentrations
MMP-1
  MMP1 expression / MMP1 induction: reduces MMP1 expression
IL-8
  IL-8 expression: reduces IL-8 expression

## CCNC(=S)N(C)CCC(Oc1ccc(C(F)(F)F)cc1)c1ccccc1 (stereo not shown) [Derivative 3, 3-ethyl-1-methyl-1-(3-phenyl-3-(4-(trifluoromethyl)phenoxy)propyl)thiourea]
MMP1; 2 μM
  MMP1 concentration: did not show any reduction of MMP1
MMP1; 5 μM
  MMP1 concentration: did not show any reduction of MMP1
MMP1; 10 μM
  MMP1 concentration: significant reduction of MMP1

## CCC(=O)N(C)CCC(Oc1ccc(C(F)(F)F)cc1)c1ccccc1 (stereo not shown) [Derivative 4, N-methyl-N-(3-phenyl-3-(4-(trifluoromethyl)phenoxy)propyl)propionamide]
MMP1; 2 μM
  MMP1 concentration: did not show any reduction of MMP1
MMP1; 5 μM
  MMP1 concentration: did not show any reduction of MMP1
MMP1; 10 μM
  MMP1 concentration: did not show any reduction of MMP1

## Cc1ccc(S(=O)(=O)N(C)CCC(Oc2ccc(C(F)(F)F)cc2)c2ccccc2)cc1 (stereo not shown) [Derivative 5, N,4-dimethyl-N-(3-phenyl-3-(4-(trifluoromethyl)phenoxy)propyl)benzenesulfonamide]
MMP1; 5 μM
  MMP1 concentration: significantly decreasd MMP1 concentrations
MMP1; 10 μM
  MMP1 concentration: significantly decreasd MMP1 concentrations
MMP-1
  MMP1 expression / MMP1 induction: reduces MMP1 expression
IL-8
  IL-8 expression: reduces IL-8 expression

## CN(CCC(Oc1ccc(C(F)(F)F)cc1)c1ccccc1)S(C)(=O)=O (stereo not shown) [Derivative 6, N-methyl-N-(3-phenyl-3-(4-(trifluoromethyl)phenoxy)propyl)methanesulfonamide]
MMP1; 5 μM
  MMP1 concentration: significantly decreasd MMP1 concentrations
MMP1; 10 μM
  MMP1 concentration: significantly decreasd MMP1 concentrations

## CNCC[C@H](Oc1cccc2ccccc12)c1cccs1 [Duloxetine]
Smoke exposed rabbits
  MMP1 in bronchoalveolar lavage fluid (ELISA): decreases MMP1 present in the BALF
  mean linear intercept (morphometric analysis): significantly reduced mean linear intercept
Smoke exposed rabbits; listed as duloxetine
  MMP1 in bronchoalveolar lavage fluid (ELISA): reduced MMP1 levels
  mean linear intercept (morphometric analysis): decreased mean linear intercepts
MMP1 promoter
  inhibition of cigarette smoke induced MMP-1 production (MMP-1 smoke induced transcriptional activation): potent inhibitors

## CNCCC(Oc1ccc(C(F)(F)F)cc1)c1ccccc1 (stereo not shown) [Fluoxetine]
Smoke exposed mice
  inflammatory cell counts in lung lavage fluid (BALF): decreases the cell count
Smoke exposed mice; listed as fluoxetine
  inflammatory cell counts in lung lavage fluid (BALF): decreased inflammatory cell counts
TLR-4
  TLR-4 expression: decreased expression; also recorded: abrogates the CSE induced increase in TLR-4 expression
  phospho-IRAK (downstream effector of TLR-4): decreased expression; also recorded: abrogates
MMP-1; 5% CSE exposed SAEC cultures
  MMP1 present in the media (secretion): decreased MMP-1 expression and secretion; also recorded: decreases MMP1 present in the media
  expression of MMP1 transcript (PCR): decreased MMP-1 expression
MMP-1; 5% CSE exposed SAEC cultures, listed as fluoxetine
  expression of MMP1 transcript (PCR): inhibits expression of MMP1 transcript
MMP1 promoter
  inhibition of cigarette smoke induced MMP-1 production (MMP-1 smoke induced transcriptional activation): potent inhibitors
